Reference: patent publication US20180282331A1, “7-Oxo -6-(sulfooxy)- 1,6-diazabicyclo [3.2.1] octane containing compounds and their use in treatment of bacterial infections (changed by PCT to: 7-OXO -6-(SULFOOXY)- 1,6-DIAZABICYCLO [3.2.1] OCTANE CONTAINING COMPOUNDS AND THEIR USE IN TREATMENT OF BACTERIAL INFECTIONS” (WOCKHARDT LIMITED, priority 2015, published 2018)
Where two headings read alike, the source gives them in different places.

Experiments:
Assay in all cases: MIC, agar dilution (MHA), compound alone
Assay type in all cases: cell-based
E. coli 7 MP = system: E. coli 7 MP
Method: (§1) The biological activity of representative compounds according to the invention against various bacterial strains was investigated. The Minimum Inhibitory Concentration (MIC) determination for the combinations was carried out in Muller Hinton Agar (MHA) (BD, USA) according to Clinical and Laboratory Standards Institute (CLSI) recommendations, (Clinical and Laboratory Standards Institute (CLSI), Performance Standards for Antimicrobial Susceptibility Testing, 20th Informational Supplement, M 100-S20, Volume 30, No. 1, 2010). In short, the test strains were adjusted to deliver about 10^4 CFU per spot with a multipoint inoculator (Applied Quality Services, UK). The plates were poured with MHA containing doubling concentration range of representative compounds according to present invention. The plates were inoculated and were incubated at 35° C. for 18 hours. […] The Table 5 depicts the antibacterial activity profile of compounds according to present invention against various multidrug resistant bacterial strains.

E. coli M 50 = system: E. coli M 50
Method: as §1

E. coli NCTC 13352 = system: E. coli NCTC 13352
Method: as §1

E. coli NCTC 13353 = system: E. coli NCTC 13353
Method: as §1

[1] = system: K. pneumoniae ATCC 700603
Method: as §1

K. pneumoniae H521 = system: K. pneumoniae H521
Method: as §1

K. pneumoniae H525 = system: K. pneumoniae H525
Method: as §1

[2] = Escherichia coli, E. coli 7 MP, compound alone, MHA, 35° C., 18 hours, read-out: MIC
[3] = Escherichia coli, M50, E. coli M 50, compound alone, MHA, 35° C., 18 hours, read-out: MIC
[4] = Escherichia coli, NCTC13352, E. coli NCTC 13352, compound alone, MHA, 35° C., 18 hours, read-out: MIC
[5] = Escherichia coli, NCTC13353, E. coli NCTC 13353, compound alone, MHA, 35° C., 18 hours, read-out: MIC
[6] = Klebsiella pneumoniae, ATCC700603, K. pneumoniae ATCC 700603, compound alone, MHA, 35° C., 18 hours, read-out: MIC
[7] = Klebsiella pneumoniae, K. pneumoniae H521, compound alone, MHA, 35° C., 18 hours, read-out: MIC
[8] = Klebsiella pneumoniae, K. pneumoniae H525, compound alone, MHA, 35° C., 18 hours, read-out: MIC

SMILES | MIC (E. coli 7 MP; [2]) | MIC (E. coli M 50; [3]) | MIC (E. coli NCTC 13352; [4]) | MIC (E. coli NCTC 13353; [5]) | MIC [1, 6] | MIC (K. pneumoniae H521; [7]) | MIC (K. pneumoniae H525; [8]) | also measured
NCc1nnn(CC(=O)NNC(=O)[C@@H]2CC[C@@H]3CN2C(=O)N3OS(=O)(=O)O)n1 [Example 26] | 1 µg/mL | 0.5 µg/mL | 0.5 µg/mL | 0.5 µg/mL | > 32 µg/mL | 1 µg/mL | 1 µg/mL | –
Nc1ncn(CC(=O)NNC(=O)[C@@H]2CC[C@@H]3CN2C(=O)N3OS(=O)(=O)O)n1 [Example 27] | 2 µg/mL | 1 µg/mL | 1 µg/mL | 1 µg/mL | > 32 µg/mL | 2 µg/mL | 2 µg/mL | –
NCCc1nnn(CC(=O)NNC(=O)[C@@H]2CC[C@@H]3CN2C(=O)N3OS(=O)(=O)O)n1 [Example 28] | 1 µg/mL | 0.25 µg/mL | 0.5 µg/mL | 0.25 µg/mL | > 32 µg/mL | 0.5 µg/mL | 0.5 µg/mL | –
NCCCc1nnn(CC(=O)NNC(=O)[C@@H]2CC[C@@H]3CN2C(=O)N3OS(=O)(=O)O)n1 [Example 30] | 1 µg/mL | 0.5 µg/mL | 0.5 µg/mL | 0.25 µg/mL | > 32 µg/mL | 0.5 µg/mL | 0.5 µg/mL | –
NCCCc1nnnn1CC(=O)NNC(=O)[C@@H]1CC[C@@H]2CN1C(=O)N2OS(=O)(=O)O [Example 31] | 1 µg/mL | 0.5 µg/mL | 0.5 µg/mL | 0.5 µg/mL | > 32 µg/mL | 1 µg/mL | 1 µg/mL | –
NCCCCc1nnn(CC(=O)NNC(=O)[C@@H]2CC[C@@H]3CN2C(=O)N3OS(=O)(=O)O)n1 [Example 32] | 1 µg/mL | 0.5 µg/mL | 0.5 µg/mL | 0.25 µg/mL | > 32 µg/mL | 0.5 µg/mL | 0.5 µg/mL | –
NCCCCc1nnnn1CC(=O)NNC(=O)[C@@H]1CC[C@@H]2CN1C(=O)N2OS(=O)(=O)O [Example 33] | 1 µg/mL | 0.5 µg/mL | 1 µg/mL | 0.5 µg/mL | > 32 µg/mL | 4 µg/mL | 0.5 µg/mL | –
O=C(Cn1ccnc1COC(=O)[C@@H]1CCCN1)NNC(=O)[C@@H]1CC[C@@H]2CN1C(=O)N2OS(=O)(=O)O [Example 34] | 4 µg/mL | 1 µg/mL | 1 µg/mL | 1 µg/mL | > 32 µg/mL | 2 µg/mL | 1 µg/mL | –
C[C@H](N)C(=O)OCc1nccn1CC(=O)NNC(=O)[C@@H]1CC[C@@H]2CN1C(=O)N2OS(=O)(=O)O [Example 35] | 4 µg/mL | 1 µg/mL | 1 µg/mL | 1 µg/mL | > 32 µg/mL | 2 µg/mL | 2 µg/mL | –
Nc1ccn(CC(=O)NNC(=O)[C@@H]2CC[C@@H]3CN2C(=O)N3OS(=O)(=O)[O-])c(=O)n1.[Na+] [Example 37] | – | – | – | – | – | – | – | MIC (E. coli 7 MP; Escherichia coli, 7MP, 18 h): 4 µg/mL; MIC (E. coli M 50; Escherichia coli, M50, 18 h): 1 µg/mL; MIC (E. coli NCTC 13352; Escherichia coli, NCTC13352, 18 h): 2 µg/mL; MIC (E. coli NCTC 13353; Escherichia coli, NCTC13353, 18 h): 1 µg/mL; MIC ([1]; Klebsiella pneumoniae, ATCC700603, 18 h): > 32 µg/mL; MIC (K. pneumoniae H521; Klebsiella pneumoniae, H521, 18 h): 4 µg/mL; MIC (K. pneumoniae H525; Klebsiella pneumoniae, H525, 18 h): 4 µg/mL
O=C(Cn1nnnc1CCO)NNC(=O)[C@@H]1CC[C@@H]2CN1C(=O)N2OS(=O)(=O)O.[Na] [Example 38, Sodium salt of (2S,5R)-N′-{[5-(2-hydroxyethyl)-1H-tetrazol-1-yl]acetyl}-7-oxo-6-(sulfooxy)-1,6-diazabicyclo[3.2.1]octane-2-carbohydrazide] | – | – | – | – | – | – | – | MIC (E. coli 7 MP; E. coli 7 MP, compound alone, MHA, 35° C., 18 hours): 1 µg/mL; MIC (E. coli M 50; E. coli M 50, compound alone, MHA, 35° C., 18 hours): 0.25 µg/mL; MIC (E. coli NCTC 13352; E. coli NCTC 13352, compound alone, MHA, 35° C., 18 hours): 0.25 µg/mL; MIC (E. coli NCTC 13353; E. coli NCTC 13353, compound alone, MHA, 35° C., 18 hours): 0.25 µg/mL; MIC ([1]; K. pneumoniae ATCC 700603, compound alone, MHA, 35° C., 18 hours): >32 µg/mL; MIC (K. pneumoniae H521; K. pneumoniae H521, compound alone, MHA, 35° C., 18 hours): 0.5 µg/mL; MIC (K. pneumoniae H525; K. pneumoniae H525, compound alone, MHA, 35° C., 18 hours): 0.5 µg/mL
O=C(Cn1nnc(CCO)n1)NNC(=O)[C@@H]1CC[C@@H]2CN1C(=O)N2OS(=O)(=O)[O-].[Na+] [Example 39] | 1 µg/mL | 0.5 µg/mL | 0.5 µg/mL | 0.5 µg/mL | > 32 µg/mL | 1 µg/mL | 2 µg/mL | –
O=C(Cn1ccnc1CCO)NNC(=O)[C@@H]1CC[C@@H]2CN1C(=O)N2OS(=O)(=O)[O-].[Na+] [Example 40] | 4 µg/mL | 2 µg/mL | 2 µg/mL | 1 µg/mL | > 32 µg/mL | 4 µg/mL | 2 µg/mL | –
O=C(Cn1ccnc1CO)NNC(=O)[C@@H]1CC[C@@H]2CN1C(=O)N2OS(=O)(=O)[O-].[Na+] [Example 42] | 2 µg/mL | 0.5 µg/mL | 1 µg/mL | 0.5 µg/mL | > 32 µg/mL | 2 µg/mL | 1 µg/mL | –
NCc1nnn(CCONC(=O)[C@@H]2CC[C@@H]3CN2C(=O)N3OS(=O)(=O)O)n1 [Example 44, (2S,5R)-N-{2-[5-(aminomethyl)-2H-tetrazol-2-yl]ethoxy}-7-oxo-6-(sulfooxy)-1,6-diazabicyclo[3.2.1]octane-2-carboxamide] | > 32 µg/mL | > 32 µg/mL | > 32 µg/mL | > 32 µg/mL | > 32 µg/mL | > 32 µg/mL | > 32 µg/mL | –
NCCc1nnn(CCONC(=O)[C@@H]2CC[C@@H]3CN2C(=O)N3OS(=O)(=O)O)n1 [Example 46] | 32 µg/mL | 4 µg/mL | 8 µg/mL | 4 µg/mL | > 32 µg/mL | 4 µg/mL | 4 µg/mL | –
O=C(NOCCn1ccnn1)[C@@H]1CC[C@@H]2CN1C(=O)N2OS(=O)(=O)O [Example 47] | 32 µg/mL | 8 µg/mL | 8 µg/mL | 8 µg/mL | > 32 µg/mL | > 32 µg/mL | > 32 µg/mL | –
O=C(NOCCn1cncn1)[C@@H]1CC[C@@H]2CN1C(=O)N2OS(=O)(=O)O [Example 48] | > 32 µg/mL | 8 µg/mL | 16 µg/mL | 8 µg/mL | > 32 µg/mL | > 32 µg/mL | 32 µg/mL | –
CCOC(=O)c1nnnn1CCONC(=O)[C@@H]1CC[C@@H]2CN1C(=O)N2OS(=O)(=O)[O-].[Na+] [Example 49] | > 32 µg/mL | > 32 µg/mL | > 32 µg/mL | > 32 µg/mL | > 32 µg/mL | > 32 µg/mL | > 32 µg/mL | –
O=C(NOCCn1ncnn1)[C@@H]1CC[C@@H]2CN1C(=O)N2OS(=O)(=O)[O-].[Na+] [Example 50] | 32 µg/mL | 8 µg/mL | 8 µg/mL | 8 µg/mL | > 32 µg/mL | > 32 µg/mL | > 32 µg/mL | –
